Test results as given in patent publication US20050176655A1, “Novel macrolide derivatives havaing effect of potentiating antifungal activity” (priority 2002, published 2005).

Assays:
[1] = system: Aspergillus niger ATCC 6275; experiment: Paper disk method, enhancing action for activities of azole antifungal agents; assay type: cell-based; conditions: 48 hours; for Inhibition activity (inhibition ring mm) A. niger ATCC 6275 GYF / Transparency of the inhibition ring A. niger ATCC 6275 GYF: fluconazole 10 μg/ml; for Inhibition activity (inhibition ring mm) A. niger ATCC 6275 GYM / Transparency of the inhibition ring A. niger ATCC 6275 GYM: miconazole 0.1 μg/ml
Protocol: (§1) Test organisms used were Candida albicans ATCC 64548, fluconazole resistant Candida albicans ATCC 64550 and Aspergillus niger ATCC 6275. Candida spp. were cultured in Waksman broth (glucose 2.0%, peptone 0.5%, dry yeast 0.3%, meat extract 0.5%, NaCl 0.5% and CaCO3 0.3%, pH 7.0) at 27° C. for 40 hours, then 0.1% thereof was inoculated on GY agar medium (glucose 1.0%, yeast extract 0.5% and agar 0.8%, pH 6.0). Spore suspension 0.2% of Aspergillus niger ATCC 6275 was inoculated on GY agar medium.
(§2) Azole antifungal agents used were miconazole (Sigma Inc., the U.S.) and fluconazole (ICN Pharmaceuticals, Inc., the U.S.), and were added at concentrations without affecting growth on each test organisms follows.
Aspergillus niger ATCC 6275: miconazole 0.1 μg/ml or fluconazole 10 μg/ml.
(§3) In the above medium, a medium added with miconazole to GY medium (control) is designated as GYM, and a medium added with fluconazole is designated as GYF. Activities were assessed by means of paper disk method (thickness: 8 mm, ADVANTEC MFS INC., Japan). Diameter of inhibition ring is expressed with mm unit after culturing Candida spp. for 24 hours and Aspergillus niger ATCC 6275 for 48 hours. Transparency of the inhibition ring is assessed with 5 degrees of A, B, C, D and E (transparence<A<B<C<D<E<opaque).

[2] = system: Candida albicans ATCC 64548; experiment: as above; assay type: cell-based; conditions: 24 hours; for Inhibition activity (inhibition ring mm) C. albicans ATCC 64548 GYM / Transparency of the inhibition ring C. albicans ATCC 64548 GYM: miconazole 0.03 μg/ml
Protocol: as §1, §2
Candida albicans ATCC 64548: miconazole 0.03 μg/ml or fluconazole 0.5 μg/ml.
as §3

[3] = 50 μg/8 mm disk, GYF, fluconazole 0.5 μg/ml
[4] = 50 μg/8 mm disk, GY medium (control, no azole)

## CCC1OC(=O)C(C)C(OC2CC(C)(OC)C(O)C(C)O2)C(C)C(OC2OC(C)CC(N(C)C)C2O)C(C)(O)CC(C)C(=NOCC=CCN2CCNCC2)C(C)C(O)C1(C)O (centres unmarked) [Compound 762]
[1]; 10 μg/8 mm disk
  Inhibition activity (inhibition ring mm) A. niger ATCC 6275 GYF: 14 mm
  Transparency of the inhibition ring A. niger ATCC 6275 GYF: E (Growth of test organism was inhibited 35% or less.)
[1]; 50 μg/8 mm disk
  Inhibition activity (inhibition ring mm) A. niger ATCC 6275 GYF: 15 mm
  Transparency of the inhibition ring A. niger ATCC 6275 GYF: E (Growth of test organism was inhibited 35% or less.)
[2]; 50 μg/8 mm disk
  Inhibition activity (inhibition ring mm) C. albicans ATCC 64548 GYM: 13 mm
  Transparency of the inhibition ring C. albicans ATCC 64548 GYM: D (Growth of test organism was inhibited 35% or more and 55% or less.)

## CCC1OC(=O)C(C)C(OC2CC(C)(OC)C(O)C(C)O2)C(C)C(OC2OC(C)CC(N(C)C)C2O)C(C)(O)CC(C)C(=NOCC=CCNCCN)C(C)C(O)C1(C)O (centres unmarked) [Compound 763, 9(E)-4-(aminoethylamino)-2-butenyloxime-erythromycin A]
[1]; 10 μg/8 mm disk
  Inhibition activity (inhibition ring mm) A. niger ATCC 6275 GYF: 12 mm
  Transparency of the inhibition ring A. niger ATCC 6275 GYF: E (Growth of test organism was inhibited 35% or less.)
[1]; 50 μg/8 mm disk
  Inhibition activity (inhibition ring mm) A. niger ATCC 6275 GYF: 15 mm
  Transparency of the inhibition ring A. niger ATCC 6275 GYF: E (Growth of test organism was inhibited 35% or less.)
[2]; [3]
  Inhibition activity (inhibition ring mm) C. albicans ATCC 64548 GYF: 10 mm
  Transparency of the inhibition ring C. albicans ATCC 64548 GYF: D (Growth of test organism was inhibited 35% or more and 55% or less.)
[2]; 50 μg/8 mm disk
  Inhibition activity (inhibition ring mm) C. albicans ATCC 64548 GYM: 16 mm
  Transparency of the inhibition ring C. albicans ATCC 64548 GYM: C (Growth of test organism was inhibited 55% or more and 75% or less.)

## CC[C@H]1OC(=O)[C@H](C)[C@@H](O[C@H]2C[C@@](C)(OC)[C@@H](O)[C@H](C)O2)[C@H](C)[C@@H](O[C@@H]2O[C@H](C)C[C@H](N(C)C/C=C/CO/N=C3\[C@H](C)C[C@@](C)(O)[C@H](O[C@@H]4O[C@H](C)C[C@H](N(C)C)[C@H]4O)[C@@H](C)[C@H](O[C@H]4C[C@@](C)(OC)[C@@H](O)[C@H](C)O4)[C@@H](C)C(=O)O[C@H](CC)[C@@](C)(O)[C@H](O)[C@H]3C)[C@H]2O)[C@](C)(O)C[C@@H](C)C(=O)[C@H](C)[C@@H](O)[C@]1(C)O [Compound 765, 3′-de-N-methyl-3′-N-{4-9(E)oxime-erythro-mycin A}-2(E)-butenyl-erythromycin A]
[1]; 10 μg/8 mm disk
  Inhibition activity (inhibition ring mm) A. niger ATCC 6275 GYF: 14 mm
  Transparency of the inhibition ring A. niger ATCC 6275 GYF: E (Growth of test organism was inhibited 35% or less.)
[1]; 50 μg/8 mm disk
  Inhibition activity (inhibition ring mm) A. niger ATCC 6275 GYF: 21 mm
  Transparency of the inhibition ring A. niger ATCC 6275 GYF: E (Growth of test organism was inhibited 35% or less.)
[1]; 100 μg/8 mm disk
  Inhibition activity (inhibition ring mm) A. niger ATCC 6275 GYM: 14 mm
  Transparency of the inhibition ring A. niger ATCC 6275 GYM: E (Growth of test organism was inhibited 35% or less.)
[2]; 50 μg/8 mm disk
  Inhibition activity (inhibition ring mm) C. albicans ATCC 64548 GYM: 14 mm
  Transparency of the inhibition ring C. albicans ATCC 64548 GYM: E (Growth of test organism was inhibited 35% or less.)

## C=CCCON=C1C(C)CC(C)(O)C(OC2OC(C)CC(N(C)C)C2O)C(C)C(OC2CC(C)(OC)C(O)C(C)O2)C(C)C(=O)OC(CC)C(C)(O)C(O)C1C (centres unmarked) [Compound 769, 9(E)-3-butenyloxime-erythromycin A]
[1]; 10 μg/8 mm disk
  Inhibition activity (inhibition ring mm) A. niger ATCC 6275 GYF: 11 mm
  Transparency of the inhibition ring A. niger ATCC 6275 GYF: E (Growth of test organism was inhibited 35% or less.)
[1]; [4]
  Inhibition activity (inhibition ring mm) A. niger ATCC 6275 GY: 10 mm
  Transparency of the inhibition ring A. niger ATCC 6275 GY: E (Growth of test organism was inhibited 35% or less.)
[1]; 50 μg/8 mm disk
  Inhibition activity (inhibition ring mm) A. niger ATCC 6275 GYF: 16 mm
  Transparency of the inhibition ring A. niger ATCC 6275 GYF: E (Growth of test organism was inhibited 35% or less.)
[2]; 100 μg/8 mm disk
  Inhibition activity (inhibition ring mm) C. albicans ATCC 64548 GYM: 14 mm
  Transparency of the inhibition ring C. albicans ATCC 64548 GYM: E (Growth of test organism was inhibited 35% or less.)

## CCC1OC1(C)C1OC(=O)C(C)C(OC2CC(C)(OC)C(OS(=O)(=O)Cc3ccccc3)C(C)O2)C(C)C(OC2OC(C)CC(N(C)C)C2OC(C)=O)C2(C)CC(C)=C(O2)C1C (centres unmarked) [Compound 775, 2′-O-acetyl-4″-O-benzylsulfonyl-12,13-epoxide-8,9-anhydro-pseudoerythromycin A. 6,9-hemiketal]
[1]; 10 μg/8 mm disk
  Inhibition activity (inhibition ring mm) A. niger ATCC 6275 GYF: 16 mm
  Transparency of the inhibition ring A. niger ATCC 6275 GYF: E (Growth of test organism was inhibited 35% or less.)
[1]; 50 μg/8 mm disk
  Inhibition activity (inhibition ring mm) A. niger ATCC 6275 GYF: 16 mm
  Transparency of the inhibition ring A. niger ATCC 6275 GYF: E (Growth of test organism was inhibited 35% or less.)
  Inhibition activity (inhibition ring mm) A. niger ATCC 6275 GYM: 16 mm
  Transparency of the inhibition ring A. niger ATCC 6275 GYM: D (Growth of test organism was inhibited 35% or more and 55% or less.)
[2]; 50 μg/8 mm disk
  Inhibition activity (inhibition ring mm) C. albicans ATCC 64548 GYM: 10 mm
  Transparency of the inhibition ring C. albicans ATCC 64548 GYM: E (Growth of test organism was inhibited 35% or less.)
